Measured values from PubChem BioAssay (NCI).
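GI50 marks 50% less growth. TGI: concentration producing complete growth inhibition.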

Key:
Assay in all cases: DTP human tumour cell line panel, 384-well format
UACC-62 melanoma = system: UACC-62 melanoma
MALME-3M melanoma = system: MALME-3M melanoma
A549 NSCLC = system: A549 NSCLC
SF-539 CNS = system: SF-539 CNS
OVCAR-5 ovarian = system: OVCAR-5 ovarian
NCI-H23 lung = system: NCI-H23 lung
NCI-H322M lung = system: NCI-H322M lung
MOLT-4 leukemia = system: MOLT-4 leukemia
NCI-H460 NSCLC = system: NCI-H460 NSCLC
RPMI-8226 leukemia = system: RPMI-8226 leukemia
CCRF-CEM leukemia = system: CCRF-CEM leukemia
U251 glioblastoma = system: U251 glioblastoma
PC-3 prostate = system: PC-3 prostate
UACC-257 melanoma = system: UACC-257 melanoma
SR leukemia = system: SR leukemia
TK-10 renal = system: TK-10 renal
BT-549 breast = system: BT-549 breast
SW-620 colon = system: SW-620 colon
SK-MEL-2 melanoma = system: SK-MEL-2 melanoma
OVCAR-3 ovarian = system: OVCAR-3 ovarian
M14 melanoma = system: M14 melanoma
LOX IMVI melanoma = system: LOX IMVI melanoma
HCT-15 colon = system: HCT-15 colon
IGROV1 ovarian = system: IGROV1 ovarian
SF-295 CNS = system: SF-295 CNS
MDA-MB-231 breast = system: MDA-MB-231 breast
KM12 colon = system: KM12 colon
EKVX NSCLC = system: EKVX NSCLC
HL-60(TB) leukemia = system: HL-60(TB) leukemia
SNB-19 CNS = system: SNB-19 CNS
OVCAR-8 ovarian = system: OVCAR-8 ovarian
SNB-75 CNS = system: SNB-75 CNS
DU-145 prostate = system: DU-145 prostate
NCI-H226 lung = system: NCI-H226 lung
ACHN renal = system: ACHN renal
OVCAR-4 ovarian = system: OVCAR-4 ovarian
A498 renal = system: A498 renal
HCT-116 colon = system: HCT-116 colon
786-0 renal = system: 786-0 renal
RXF 393 renal = system: RXF 393 renal
NCI/ADR-RES ovarian = system: NCI/ADR-RES ovarian
SK-OV-3 ovarian = system: SK-OV-3 ovarian
HT29 colon = system: HT29 colon
MCF7 breast = system: MCF7 breast
HOP-92 NSCLC = system: HOP-92 NSCLC
SF-268 CNS = system: SF-268 CNS
HS 578T breast = system: HS 578T breast

C[C@@H](Oc1cc(-n2cnc3ccc(CN4CCN(C)CC4)cc32)sc1C(N)=O)c1ccccc1C(F)(F)F
GI50 (UACC-62 melanoma): 0.613 µM | TGI (UACC-62 melanoma): 2.1 µM | GI50 (MALME-3M melanoma): 1.15 µM | TGI (MALME-3M melanoma): 2.37 µM | GI50 (A549 NSCLC): 0.819 µM | TGI (A549 NSCLC): 6.85 µM | GI50 (SF-539 CNS): 0.462 µM | TGI (SF-539 CNS): 1.72 µM | GI50 (OVCAR-5 ovarian): 0.532 µM | TGI (OVCAR-5 ovarian): 3.76 µM | GI50 (NCI-H23 lung): 0.384 µM | TGI (NCI-H23 lung): 1.68 µM | GI50 (NCI-H322M lung): 1.78 µM | TGI (NCI-H322M lung): 9.79 µM | GI50 (MOLT-4 leukemia): 0.193 µM | TGI (MOLT-4 leukemia): 0.342 µM | GI50 (NCI-H460 NSCLC): 0.32 µM | TGI (NCI-H460 NSCLC): 0.906 µM | GI50 (RPMI-8226 leukemia): 0.25 µM | TGI (RPMI-8226 leukemia): 0.734 µM | GI50 (CCRF-CEM leukemia): 0.18 µM | TGI (CCRF-CEM leukemia): 0.329 µM | GI50 (U251 glioblastoma): 0.689 µM | TGI (U251 glioblastoma): 5.08 µM | GI50 (PC-3 prostate): 0.804 µM | TGI (PC-3 prostate): 11.4 µM | GI50 (UACC-257 melanoma): 1.15 µM | TGI (UACC-257 melanoma): 2.37 µM | GI50 (SR leukemia): 0.146 µM | TGI (SR leukemia): 0.294 µM | GI50 (TK-10 renal): 1.22 µM | TGI (TK-10 renal): 6.03 µM | GI50 (BT-549 breast): 0.422 µM | TGI (BT-549 breast): 1.91 µM | GI50 (SW-620 colon): 0.34 µM | TGI (SW-620 colon): 1.51 µM | GI50 (SK-MEL-2 melanoma): 0.272 µM | TGI (SK-MEL-2 melanoma): 0.839 µM | GI50 (OVCAR-3 ovarian): 0.227 µM | TGI (OVCAR-3 ovarian): 0.534 µM | GI50 (M14 melanoma): 0.573 µM | TGI (M14 melanoma): 1.86 µM | GI50 (LOX IMVI melanoma): 0.588 µM | TGI (LOX IMVI melanoma): 1.95 µM | GI50 (HCT-15 colon): 0.374 µM | TGI (HCT-15 colon): 1.2 µM | GI50 (IGROV1 ovarian): 0.844 µM | TGI (IGROV1 ovarian): 11.4 µM | GI50 (SF-295 CNS): 1.05 µM | TGI (SF-295 CNS): 9.34 µM | GI50 (MDA-MB-231 breast): 0.679 µM | TGI (MDA-MB-231 breast): 10.6 µM | GI50 (KM12 colon): 0.296 µM | TGI (KM12 colon): 0.982 µM | GI50 (EKVX NSCLC): 0.734 µM | TGI (EKVX NSCLC): 4.19 µM | GI50 (HL-60(TB) leukemia): 0.203 µM | TGI (HL-60(TB) leukemia): 0.352 µM | GI50 (SNB-19 CNS): 1.18 µM | TGI (SNB-19 CNS): 15 µM | GI50 (OVCAR-8 ovarian): 0.348 µM | TGI (OVCAR-8 ovarian): 1.29 µM | GI50 (SNB-75 CNS): 1.68 µM | TGI (SNB-75 CNS): 5.3 µM | GI50 (DU-145 prostate): 0.346 µM | TGI (DU-145 prostate): 1.21 µM | GI50 (NCI-H226 lung): 3.55 µM | TGI (NCI-H226 lung): 17.8 µM | GI50 (ACHN renal): 3.29 µM | TGI (ACHN renal): 13.8 µM | GI50 (OVCAR-4 ovarian): 1.81 µM | TGI (OVCAR-4 ovarian): 10.2 µM | GI50 (A498 renal): 0.871 µM | TGI (A498 renal): 12.2 µM | GI50 (HCT-116 colon): 0.534 µM | TGI (HCT-116 colon): 3.04 µM | GI50 (786-0 renal): 1.17 µM | TGI (786-0 renal): 2.73 µM | GI50 (RXF 393 renal): 0.192 µM | TGI (RXF 393 renal): 0.565 µM | GI50 (NCI/ADR-RES ovarian): 1.69 µM | TGI (NCI/ADR-RES ovarian): 3.59 µM | GI50 (SK-OV-3 ovarian): 0.402 µM | TGI (SK-OV-3 ovarian): 2.6 µM | GI50 (HT29 colon): 0.36 µM | TGI (HT29 colon): 1.25 µM | GI50 (MCF7 breast): 0.384 µM | TGI (MCF7 breast): 2.5 µM | GI50 (HOP-92 NSCLC): 1.57 µM | TGI (HOP-92 NSCLC): 5.26 µM | GI50 (SF-268 CNS): 0.882 µM | TGI (SF-268 CNS): 3.64 µM | GI50 (HS 578T breast): 1.01 µM | TGI (HS 578T breast): 2.58 µM

Cc1cc(-c2nc(C(=O)Nc3cc4oc(N5CCOCC5)nc4nc3N3CC[C@@H](O)C3)co2)ccn1
GI50 (UACC-62 melanoma): 22.6 µM | TGI (UACC-62 melanoma): > 100 µM | GI50 (MALME-3M melanoma): 19.4 µM | TGI (MALME-3M melanoma): > 100 µM | GI50 (A549 NSCLC): 32.3 µM | TGI (A549 NSCLC): > 100 µM | GI50 (SF-539 CNS): 23.2 µM | TGI (SF-539 CNS): > 100 µM | GI50 (OVCAR-5 ovarian): 46 µM | TGI (OVCAR-5 ovarian): > 100 µM | GI50 (NCI-H23 lung): 13.1 µM | TGI (NCI-H23 lung): 47.5 µM | GI50 (NCI-H322M lung): 30.1 µM | TGI (NCI-H322M lung): > 100 µM | GI50 (MOLT-4 leukemia): 13.2 µM | TGI (MOLT-4 leukemia): 26.6 µM | GI50 (NCI-H460 NSCLC): 29.8 µM | TGI (NCI-H460 NSCLC): > 100 µM | GI50 (RPMI-8226 leukemia): 15.5 µM | TGI (RPMI-8226 leukemia): 39.4 µM | GI50 (CCRF-CEM leukemia): 21.4 µM | TGI (CCRF-CEM leukemia): 62.2 µM | GI50 (U251 glioblastoma): 32.7 µM | TGI (U251 glioblastoma): > 100 µM | GI50 (PC-3 prostate): 35.8 µM | TGI (PC-3 prostate): > 100 µM | GI50 (UACC-257 melanoma): 37.5 µM | TGI (UACC-257 melanoma): > 100 µM | GI50 (SR leukemia): 18 µM | TGI (SR leukemia): 37.3 µM | GI50 (TK-10 renal): 18.6 µM | TGI (TK-10 renal): > 100 µM | GI50 (BT-549 breast): 16.3 µM | TGI (BT-549 breast): 82.1 µM | GI50 (SW-620 colon): 28.5 µM | TGI (SW-620 colon): > 100 µM | GI50 (SK-MEL-2 melanoma): 15.5 µM | TGI (SK-MEL-2 melanoma): 41.6 µM | GI50 (OVCAR-3 ovarian): 13.3 µM | TGI (OVCAR-3 ovarian): 42 µM | GI50 (M14 melanoma): 27.9 µM | TGI (M14 melanoma): > 100 µM | GI50 (LOX IMVI melanoma): 39.3 µM | TGI (LOX IMVI melanoma): > 100 µM | GI50 (HCT-15 colon): 20.2 µM | TGI (HCT-15 colon): > 100 µM | GI50 (IGROV1 ovarian): 11.4 µM | TGI (IGROV1 ovarian): 35.6 µM | GI50 (SF-295 CNS): 53.7 µM | TGI (SF-295 CNS): > 100 µM | GI50 (MDA-MB-231 breast): 36.9 µM | TGI (MDA-MB-231 breast): > 100 µM | GI50 (KM12 colon): 0.424 µM | TGI (KM12 colon): > 100 µM | GI50 (EKVX NSCLC): 14.2 µM | TGI (EKVX NSCLC): 71.2 µM | GI50 (HL-60(TB) leukemia): 17.7 µM | TGI (HL-60(TB) leukemia): 44.2 µM | GI50 (SNB-19 CNS): 20.4 µM | TGI (SNB-19 CNS): > 100 µM | GI50 (OVCAR-8 ovarian): 38.1 µM | TGI (OVCAR-8 ovarian): > 100 µM | GI50 (SNB-75 CNS): 11.2 µM | TGI (SNB-75 CNS): 58.8 µM | GI50 (DU-145 prostate): 34.1 µM | TGI (DU-145 prostate): > 100 µM | GI50 (NCI-H226 lung): 81.2 µM | TGI (NCI-H226 lung): > 100 µM | GI50 (ACHN renal): 19.8 µM | TGI (ACHN renal): > 100 µM | GI50 (OVCAR-4 ovarian): 36.9 µM | TGI (OVCAR-4 ovarian): > 100 µM | GI50 (A498 renal): 12.3 µM | TGI (A498 renal): > 100 µM | GI50 (HCT-116 colon): 19.4 µM | TGI (HCT-116 colon): > 100 µM | GI50 (786-0 renal): 43.4 µM | TGI (786-0 renal): > 100 µM | GI50 (RXF 393 renal): 12 µM | TGI (RXF 393 renal): 64.1 µM | GI50 (NCI/ADR-RES ovarian): > 100 µM | TGI (NCI/ADR-RES ovarian): > 100 µM | GI50 (SK-OV-3 ovarian): 8.43 µM | TGI (SK-OV-3 ovarian): 44.1 µM | GI50 (HT29 colon): > 100 µM | TGI (HT29 colon): > 100 µM | GI50 (MCF7 breast): 16.5 µM | TGI (MCF7 breast): > 100 µM | GI50 (HOP-92 NSCLC): 27.3 µM | TGI (HOP-92 NSCLC): > 100 µM | GI50 (SF-268 CNS): 54.2 µM | TGI (SF-268 CNS): > 100 µM | GI50 (HS 578T breast): 2.37 µM | TGI (HS 578T breast): 23.4 µM
